Test results as given in patent US20240000071A1, “DEVICES, COMPOUNDS AND METHODS FOR INSECT CONTROL” (Agriculture Victoria Services Pty Ltd, priority 2020, published 2024).
Like-named read-outs stand apart in the source and are kept apart here.

Assays:
[1] = test system: Queensland fruit flies antennae and palps; assay: Electroantennogram (EAG) and Electropalpogram (EPG) screening; set-up: species or system Bactrocera tryoni
Description: FIG. 2. Electrophysiological responses of Queensland fruit flies antennae (A) and palps (B) to fungal (FV) components. Graphs located on the upper part of each figure represent the electric potential of the antenna/palp. Arrows indicate points in time at which chemical stimulations are applied. Olfactory “responses” are characterised by sudden drops (spike) of the electric potential in the antenna; the amplitude of which is positively correlated to response strength. Stars indicate statistical significance of response amplitudes elicited by test compounds compared to that of the solvent (blank=paraffin oil). Bars represent the normalized responses relative to a positive control (ethyl hexanoate) of male (grey) and female (white) flies. Letters above bars indicate significant differences in response strength between each sex.
Graphs located on the upper part represent the electric potential of the antenna/palp. Arrows indicate points in time at which chemical stimulations are applied. Olfactory “responses” are characterised by sudden drops (spike) of the electric potential in the antenna; the amplitude of which is positively correlated to response strength. Stars indicate statistical significance of response amplitudes elicited by test compounds compared to that of the solvent (blank=paraffin oil). Bars represent the normalized responses relative to a positive control (ethyl hexanoate) of male (grey) and female (white) flies. Letters above bars indicate significant differences in response strength between male and female Qfly.

[2] = Release rate from LDPE sachets by gravimetry; format: physicochemical; conditions: for Release rate per thickness of LDPE pouch: 22° C., constant, laboratory; for Estimated longevity: standard size sachet (50 cm^2), 1 ml of neat compound
Description: Sachets consist of plastic pouches made of Low Density PolyEthylene (LDPE) layflat tubing of determined size and thickness. Each sachet contained one or several dental wicks (approximately 4 cm length and 1 cm diameter) on which a given amount of the neat chemical compound was applied (between 0.1 and 5 g). The impregnated wick (20) was subsequently enclosed in the LDPE pouch (10) and sealed using a heat sealer (FIG. 3).
Release rates of the short chain esters and fungal alcohols were investigated in a range of sachet designs.

female B. tryoni = assay: GC-FID-EAD with odours of infested yellow nectarines; set-up: species or system Bactrocera tryoni; conditions: female B. tryoni antenna
Method: Gas-chromatography linked to electrophysiology (GC-FID-EAD) was conducted using female B. tryoni and odours of infested yellow nectarines (collected by SPME), to identify volatiles of interest as candidate female attractants.

[3] = test system: Mediterranean fruit fly, Ceratitis capitata; conditions: cited from earlier work

Row | Structure (SMILES) | Release rate per thickness of LDPE pouch ([2]; 50 μm LDPE pouch) [mg/day] | Release rate per thickness of LDPE pouch ([2]; 100 μm LDPE pouch) [mg/day] | Release rate per thickness of LDPE pouch ([2]; 150 μm LDPE pouch) [mg/day] | Estimated longevity [2] | Release rate per thickness of LDPE pouch ([2]; 200 μm LDPE pouch) [mg/day] | electrophysiological responses (EAG/EPG) ([1]; listed as 2-methyl-1-butanol) | electrophysiological responses (EAG/EPG) ([1]; listed as 2-methylbutanol) | electrophysiological responses (EAG/EPG) [1] | electrophysiological responses (EAG/EPG) ([1]; listed as iso-butyl alcohol) | electrophysiological (EAD) response (female B. tryoni) | electrophysiological response in EAG [3]
1 | CCC(C)CO (stereo not shown) [2-Methyl-butanol, 2-methyl-1-butanol] | 16.4 | 4.1 | 2.1 | >1 year |  | strong electrophysiological responses | strong responses |  |  |  | 
2 | CCOC(C)=O [Ethyl acetate] | 880 | 302.7 | 180.6 | ~6 days | 134 |  |  |  |  |  | 
3 | CCCC(=O)OCC [Ethyl butyrate] | 700 | 295 | 171 | ~6 days | 127 |  |  |  |  |  | 
4 | CCOC(=O)CC [Ethyl propionate] | 880 | 321 | 200 | ~5 days | 171 |  |  |  |  |  | 
5 | CCCCCCC1CCC(=O)O1 (stereo not shown) [γ-decalactone] |  |  |  |  |  |  |  |  |  | significant response | evoke an electrophysiological response

Continued, in another order:

Row | Release rate per thickness of LDPE pouch ([2]; 50 μm LDPE pouch) [mg/day] | Release rate per thickness of LDPE pouch ([2]; 100 μm LDPE pouch) [mg/day] | Release rate per thickness of LDPE pouch ([2]; 150 μm LDPE pouch) [mg/day] | Estimated longevity [2] | Release rate per thickness of LDPE pouch ([2]; 200 μm LDPE pouch) [mg/day] | Structure (SMILES) | electrophysiological responses (EAG/EPG) ([1]; listed as 2-methyl-1-butanol) | electrophysiological responses (EAG/EPG) ([1]; listed as 2-methylbutanol) | electrophysiological responses (EAG/EPG) [1] | electrophysiological responses (EAG/EPG) ([1]; listed as iso-butyl alcohol) | electrophysiological (EAD) response (female B. tryoni) | electrophysiological response in EAG [3]
6 | 12 | 3 | 2 | >1 year |  | CC(C)CCO [Isoamyl alcohol] |  |  | strong electrophysiological responses |  |  | 
7 | 20 | 4 | 2 | >1 year |  | CC(C)CO [Isobutyl alcohol] |  |  | weak and inconsistent responses | strong electrophysiological responses |  | 
